Measured values from BigSolDB 2.1.

O=c1cc(-c2ccc(O)cc2)oc2cc(O)cc(O)c12
solubility (mole fraction)
Conditions	298.2 K	303.2 K	308.2 K	313.2 K	318.2 K
in DMSO	0.376	0.384	0.395	0.407	0.418
in ethanol	0.00025	0.000314	0.000358	0.000426	0.000486
in ethyl acetate	0.000241	0.000284	0.000326	0.000394	0.000446
in ethylene glycol	0.00522	0.00573	0.00644	0.00732	0.00822
in isopropanol	0.00038	0.000427	0.000485	0.000551	0.000629
in methanol	0.000142	0.000172	0.000207	0.000249	0.000296
in n-butanol	0.000562	0.00063	0.000713	0.000808	0.000918
in propylene glycol	0.0101	0.0112	0.0124	0.0137	0.015
in sec-butanol	0.000534	0.000603	0.000685	0.000781	0.00089
in transcutol	0.334	0.345	0.357	0.371	0.383
in water	1.04e-06	1.33e-06	1.73e-06	2.27e-06	3.08e-06

Conditions	solubility (mole fraction)
in PEG-400, 298.2 K	0.397
in PEG-400, 303.2 K	0.405
in PEG-400, 308.2 K	0.413
in PEG-400, 313.2 K	0.42
in PEG-400, 318.2 K	0.427
